Test results reported in patent US4370338A (priority 1980, dated 1983).
Like-named read-outs stand apart in the source and are kept apart here.

How the values were obtained:
[1] = system: convulsions caused by strychnine; test: Strychnine convulsions in the rat, intraperitoneal; assay type: in vivo, rat (male CD, Charles River); settings: for ED50: Rattus norvegicus, ip, read-out: ED50 Strychnine (rat ip)
Method: (§1) In the case of the male rat CD (Charles River) of 200-230 g, the convulsions are caused by the subcutaneous injection either of 500 mg/kg of isoniazide (INH) or of 1.5 mg/kg of a strychnine in the form of the sulfate. According to the protocol described by J. L. Costa et al. (Adv. Biochem., Pharmacol., 14, 113, 1975), the product to be tested is administered intraperitoneally 25 minutes after the isoniazide and 5 minutes before the strychnine. The number of animals having shown convulsions is registered during an observation period of 60 minutes after the injection of the isoniazide and 25 minutes after the injection of the strychnine.
(§2) The results obtained are collected in the following Table 1, wherein there are also given, for comparison, the results provided by two reference anticonvulsants (valproic acid, phenobarbital).

[2] = system: convulsions caused by isoniazide (INH); test: animal or person; assay type: in vivo, rat (male CD, Charles River); settings: for ED50: 25 min, rat, ip, 25 minutes after 500 mg/kg sc isoniazide, dose protecting 50% of animals, read-out: ED50 I.N.H. (rat ip)
Method: as §1

[3] = system: convulsions caused by supramaximal electric shock (ESM); test: Supramaximal electric shock (ESM) convulsions in the mouse, oral; assay type: in vivo, mouse (male CD1, Charles River); settings: 1.5 h, read-out: ED50 E.S.M. (mouse orally)
Method: These effects have been shown in vivo on the mouse and the rat. In the case of the mouse, the product is administered orally, in increasing doses, to batches of 10 male mice CD1 (Charles River) of 20-27 g, 90 minutes before exposure to a supramaximal electric shock (ESM), according to the method described by G. M. Everett and R. K. Richards (J. Pharmacol, Exptl. Therap. 81, 402, 1944).
as §2

male mouse CD1 = test: Test of the 4 plates (anxiolytic activity); assay type: in vivo, Charles River); settings: 90 minutes before test, vs control group
Method: The anxiolytic activity of the product has been shown on the mouse, by use of the method called the test of the 4 plates, described by J. R. Boissier et al. (Europ. J. Pharmacol., 4, 145, 1968).
90 minutes after oral administration of the product, the animal undergoing the test (male mouse CD1 Charles River of 20-27 g) is placed in a box the base or floor of which is formed of four separated metal plates. Each time the animal passes from one plate to another, all the plates are electrified. The animal rapidly associates displacement and an electric shock and stays immovable on one of the plates. The number of crossings effected by the mouse in 2 minutes is thus determined.
The animals are divided into groups of 20 mice, the control group receiving only the vehicle. The results obtained for the treated groups are expressed by a percentage increase of the number of passages with respect to the control group and are collected in Table 2 below.

CCCC(CCC)C(=O)O [Valproic acid]
ED50 Strychnine (rat ip), result in words ([1]; rat, inactive at 600 (mg/kg)): inactive | ED50 [2]: 180 mg/kg | ED50 ([3]; Mus musculus, po): 450 mg/kg

Nc1nc2ccc(OC(F)(F)F)cc2s1 [2-Amino-6-trifluoromethoxy-benzothiazole]
% increase of the number of passages (male mouse CD1; 5 mg/kg orally): 50% | % increase of the number of passages (male mouse CD1; 10 mg/kg orally): 61% | % increase of the number of passages (male mouse CD1; 20 mg/kg orally): 100% | % increase of the number of passages (male mouse CD1; 25 mg/kg orally (first line printed 25)): 162% | % increase of the number of passages (male mouse CD1; 25 mg/kg orally (second line printed 25)): 215% | ED50 [1]: 8.4 mg/kg | ED50 [2]: 2.2 mg/kg | doses inhibiting INH convulsions, times less than those necessary to inhibit strychnine convulsions ([2]; INH versus strychnine convulsions): 4 times | ED50 ([3]; mouse, oral, 90 minutes before supramaximal electric shock, dose protecting 50% of animals): 10 mg/kg

CCC1(c2ccccc2)C(=O)NC(=O)NC1=O [Phenobarbital]
ED50 [1]: 33 mg/kg | ED50 [2]: 16 mg/kg | ED50 ([3]; Mus musculus, po): 26 mg/kg
